Experimental data taken from PubChem BioAssay AID1963436 (Molecular Pharmacology Branch, DTP, NCI, 2024).
Values joined by “and” are separate entries in the source; they are usually repeats but may differ in a detail not shown here. Equal values may be shown once.

System: OVCAR-5 complex spheroid (HUVEC/MSC), viability % T/C
Assay: Anticancer human tumor OVCAR-5 cell line growth inhibition [Asc];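 note: spheroids exposed to agents for 7 days before readout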;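 for viability, T/C: 100% = DMSO vehicle-treated wells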
Details: for viability, T/C: stronger effect = lower value
Method in brief: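 Tumor cells were grown as complex spheroids with human endothelial cells (HUVEC) and human mesenchymal stem cells as stroma. Agents were tested alone and in combination, in half-log steps down from the clinical Cmax, or from 10 microM where Cmax was unknown.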

[1] = curve of first compound, second compound 0.1 µM
[2] = curve of first compound, second compound 0.316 µM
[3] = curve of first compound, second compound 1 µM
[4] = curve of first compound, second compound 3.16 µM
[5] = curve of first compound, second compound 10 µM

For `NC(=O)C(=Cn1cnc(-c2cc(C(F)(F)F)cc(C(F)(F)F)c2)n1)c1cncnc1` + Cc1c(S(C)(=O)=O)c(-c2cc(F)cc(N3CCN(c4ccc(NS(=O)(=O)c5ccc(NC(CCN6CCC(C(=O)OCCCP(=O)(O)O)CC6)CSc6ccccc6)c(S(=O)(=O)C(F)(F)F)c5)cc4)CC3)c2)c(-c2ccc(Cl)cc2)n1C(C)C, the IC50 [1] was 199 nM, the IC50 [2] was 137 nM and the IC50 [3] was 106 nM. For the same molecule, the IC50 [4] was 63.9 nM, the IC50 [5] was 66.8 nM and the viability, T/C (second compound 0.1 µM, first compound 0.000949 µM) was 106%. For the same molecule, the viability, T/C (second compound 0.1 µM, first compound 0.003 µM) was 99.1%, the viability, T/C (second compound 0.1 µM, first compound 0.00949 µM) was 91.7% and the viability, T/C (second compound 0.1 µM, first compound 0.03 µM) was 79.6%. The viability, T/C (second compound 0.1 µM, first compound 0.0949 µM) was 82.2%, the viability, T/C (second compound 0.1 µM, first compound 0.3 µM) was 34.8% and the viability, T/C (second compound 0.316 µM, first compound 0.000949 µM) was 100%. The viability, T/C (second compound 0.316 µM, first compound 0.003 µM) was 96.2%, the viability, T/C (second compound 0.316 µM, first compound 0.00949 µM) was 93.7% and the viability, T/C (second compound 0.316 µM, first compound 0.03 µM) was 77.6%. It also gave a viability, T/C (second compound 0.316 µM, first compound 0.0949 µM) of 60.3%, a viability, T/C (second compound 0.316 µM, first compound 0.3 µM) of 29.3% and a viability, T/C (second compound 1 µM, first compound 0.000949 µM) of 98.3%. The viability, T/C (second compound 1 µM, first compound 0.003 µM) was 103%, the viability, T/C (second compound 1 µM, first compound 0.00949 µM) was 79.7% and the viability, T/C (second compound 1 µM, first compound 0.03 µM) was 79%. It also gave a viability, T/C (second compound 1 µM, first compound 0.0949 µM) of 53.1%, a viability, T/C (second compound 1 µM, first compound 0.3 µM) of 19.1% and a viability, T/C (second compound 3.16 µM, first compound 0.000949 µM) of 97.1%. For the same molecule, the viability, T/C (second compound 3.16 µM, first compound 0.003 µM) was 98.5%, the viability, T/C (second compound 3.16 µM, first compound 0.00949 µM) was 91.8% and the viability, T/C (second compound 3.16 µM, first compound 0.03 µM) was 66.3%. The viability, T/C (second compound 3.16 µM, first compound 0.0949 µM) was 41.9%, the viability, T/C (second compound 3.16 µM, first compound 0.3 µM) was 17% and the viability, T/C (second compound 10 µM, first compound 0.000949 µM) was 119%. For the same molecule, the viability, T/C (second compound 10 µM, first compound 0.003 µM) was 121%, the viability, T/C (second compound 10 µM, first compound 0.00949 µM) was 111% and the viability, T/C (second compound 10 µM, first compound 0.03 µM) was 85.2%. It also gave a viability, T/C (second compound 10 µM, first compound 0.0949 µM) of 34.5% and a viability, T/C (second compound 10 µM, first compound 0.3 µM) of 8.64%.
With `CCN1C(C(=O)NC23CCC(C(=O)O)(CC2)CC3)C(c2cccc(Cl)c2F)C2(C(=O)Nc3cc(Cl)ccc32)C12CCCCC2` (centres undefined) the viability, T/C (compound 0.00949 µM) was 101% and 109%, the viability, T/C (compound 0.03 µM) was 97.1% [middle of 15 runs] and the viability, T/C (compound 0.0949 µM) was 93.8% [middle of 15 runs]. For the same molecule, the viability, T/C (compound 0.3 µM) was 95.7% [middle of 15 runs], the viability, T/C (compound 0.949 µM) was 99.8% [middle of 15 runs] and the viability, T/C (compound 3 µM) was 103% [middle of 15 runs]. For the same molecule, the IC50 (compound alone, run of 09/27/2022) was > 3000 nM and the IC50 (curve of compound) was > 3000 nM.
`Cn1ncnc1[C@H]1c2n[nH]c(=O)c3cc(F)cc(c23)N[C@@H]1c1ccc(F)cc1` was tested, and the viability, T/C (compound 0.000316 µM) was 104% and 94.5% and 106%, the viability, T/C (compound 0.001 µM) was 108% (2×) and 101% and the viability, T/C (compound 0.00316 µM) was 99.5% and 95.4% and 93.1%. For the same molecule, the viability, T/C (compound 0.01 µM) was 90.6% and 93.5% and 96.7%, the viability, T/C (compound 0.0316 µM) was 92.8% and 92.5% and 90.8% and the viability, T/C (compound 0.1 µM) was 91.8% and 88.3% and 93.8%. The IC50 (curve of compound) was > 100 nM.
For `NC1CCC(NC2CC2c2ccccc2)CC1` (centres undefined), the viability, T/C (compound 0.000316 µM) was 97.1% and 101% and 95.9%, the viability, T/C (compound 0.001 µM) was 97.4% and 108% and 97% and the viability, T/C (compound 0.00316 µM) was 89.8% and 82% and 93.5%. The viability, T/C (compound 0.01 µM) was 90.4% and 90% and 91.2%, the viability, T/C (compound 0.0316 µM) was 105% and 93.5% and 87% and the viability, T/C (compound 0.1 µM) was 90.1% and 91.9% and 91.5%. The IC50 (curve of compound) was > 100 nM.
With `CCN1CCN(Cc2ccc(Nc3ncc(F)c(-c4cc(F)c5nc(C)n(C(C)C)c5c4)n3)nc2)CC1` + CCN1C(C(=O)NC23CCC(C(=O)O)(CC2)CC3)C(c2cccc(Cl)c2F)C2(C(=O)Nc3cc(Cl)ccc32)C12CCCCC2 the IC50 (curve of first compound, second compound 0.03 µM) was > 1000 nM, the IC50 (curve of first compound, second compound 0.0949 µM) was > 1000 nM and the IC50 (curve of first compound, second compound 0.3 µM) was > 1000 nM. The IC50 (curve of first compound, second compound 0.949 µM) was > 1000 nM, the IC50 (curve of first compound, second compound 3 µM) was > 1000 nM and the viability, T/C (second compound 0.03 µM, first compound 0.00316 µM) was 85.1%. For the same molecule, the viability, T/C (second compound 0.03 µM, first compound 0.01 µM) was 93.5%, the viability, T/C (second compound 0.03 µM, first compound 0.0316 µM) was 68.1% and the viability, T/C (second compound 0.03 µM, first compound 0.1 µM) was 64.7%. It also gave a viability, T/C (second compound 0.03 µM, first compound 0.316 µM) of 65.4%, a viability, T/C (second compound 0.03 µM, first compound 1 µM) of 56.5% and a viability, T/C (second compound 0.0949 µM, first compound 0.00316 µM) of 98.2%. For the same molecule, the viability, T/C (second compound 0.0949 µM, first compound 0.01 µM) was 91.8%, the viability, T/C (second compound 0.0949 µM, first compound 0.0316 µM) was 67.2% and the viability, T/C (second compound 0.0949 µM, first compound 0.1 µM) was 66.1%. It also gave a viability, T/C (second compound 0.0949 µM, first compound 0.316 µM) of 61%, a viability, T/C (second compound 0.0949 µM, first compound 1 µM) of 62.8% and a viability, T/C (second compound 0.3 µM, first compound 0.00316 µM) of 102%. For the same molecule, the viability, T/C (second compound 0.3 µM, first compound 0.01 µM) was 86.5%, the viability, T/C (second compound 0.3 µM, first compound 0.0316 µM) was 77.7% and the viability, T/C (second compound 0.3 µM, first compound 0.1 µM) was 59.9%. The viability, T/C (second compound 0.3 µM, first compound 0.316 µM) was 68.3%, the viability, T/C (second compound 0.3 µM, first compound 1 µM) was 62.4% and the viability, T/C (second compound 0.949 µM, first compound 0.00316 µM) was 85.9%. The viability, T/C (second compound 0.949 µM, first compound 0.01 µM) was 92.3%, the viability, T/C (second compound 0.949 µM, first compound 0.0316 µM) was 74.2% and the viability, T/C (second compound 0.949 µM, first compound 0.1 µM) was 65.1%. The viability, T/C (second compound 0.949 µM, first compound 0.316 µM) was 69.1%, the viability, T/C (second compound 0.949 µM, first compound 1 µM) was 62.4% and the viability, T/C (second compound 3 µM, first compound 0.00316 µM) was 106%. It also gave a viability, T/C (second compound 3 µM, first compound 0.01 µM) of 99.1%, a viability, T/C (second compound 3 µM, first compound 0.0316 µM) of 85.4% and a viability, T/C (second compound 3 µM, first compound 0.1 µM) of 65.6%. The viability, T/C (second compound 3 µM, first compound 0.316 µM) was 65.5% and the viability, T/C (second compound 3 µM, first compound 1 µM) was 64.2%.
In the case of `NC(=O)C(=Cn1cnc(-c2cc(C(F)(F)F)cc(C(F)(F)F)c2)n1)c1cncnc1`, the viability, T/C (compound 0.000949 µM) is reported as 102% and 107% and 95.8%, the viability, T/C (compound 0.003 µM) is reported as 105% and 93.1% and 99.5% and the viability, T/C (compound 0.00949 µM) is reported as 88.8% and 83.2% and 86.8%. For the same molecule, the viability, T/C (compound 0.03 µM) was 89.3% and 78.8% and 86%, the viability, T/C (compound 0.0949 µM) was 78.5% and 71.5% and 81.5% and the viability, T/C (compound 0.3 µM) was 45.6% and 40.4% and 54.9%. The IC50 (curve of compound) was 265 nM and 212 nM and > 300 nM.
`O=C(c1cc(Cc2n[nH]c(=O)c3ccccc23)ccc1F)N1CCN(C(=O)C2CC2)CC1` + Cc1c(S(C)(=O)=O)c(-c2cc(F)cc(N3CCN(c4ccc(NS(=O)(=O)c5ccc(NC(CCN6CCC(C(=O)OCCCP(=O)(O)O)CC6)CSc6ccccc6)c(S(=O)(=O)C(F)(F)F)c5)cc4)CC3)c2)c(-c2ccc(Cl)cc2)n1C(C)C was tested, and the IC50 [1] was > 10000 nM, the IC50 [2] was > 10000 nM and the IC50 [3] was > 10000 nM. For the same molecule, the IC50 [4] was > 10000 nM, the IC50 [5] was > 10000 nM and the viability, T/C (second compound 0.1 µM, first compound 0.0316 µM) was 103%. For the same molecule, the viability, T/C (second compound 0.1 µM, first compound 0.1 µM) was 101%, the viability, T/C (second compound 0.1 µM, first compound 0.316 µM) was 90.8% and the viability, T/C (second compound 0.1 µM, first compound 1 µM) was 82.6%. The viability, T/C (second compound 0.1 µM, first compound 3.16 µM) was 91.5%, the viability, T/C (second compound 0.1 µM, first compound 10 µM) was 76.1% and the viability, T/C (second compound 0.316 µM, first compound 0.0316 µM) was 95.8%. The viability, T/C (second compound 0.316 µM, first compound 0.1 µM) was 95.6%, the viability, T/C (second compound 0.316 µM, first compound 0.316 µM) was 84.8% and the viability, T/C (second compound 0.316 µM, first compound 1 µM) was 79.6%. For the same molecule, the viability, T/C (second compound 0.316 µM, first compound 3.16 µM) was 83.6%, the viability, T/C (second compound 0.316 µM, first compound 10 µM) was 78.5% and the viability, T/C (second compound 1 µM, first compound 0.0316 µM) was 92.2%. For the same molecule, the viability, T/C (second compound 1 µM, first compound 0.1 µM) was 89.8%, the viability, T/C (second compound 1 µM, first compound 0.316 µM) was 88% and the viability, T/C (second compound 1 µM, first compound 1 µM) was 81.4%. It also gave a viability, T/C (second compound 1 µM, first compound 3.16 µM) of 78.4%, a viability, T/C (second compound 1 µM, first compound 10 µM) of 62.6% and a viability, T/C (second compound 3.16 µM, first compound 0.0316 µM) of 86.2%. The viability, T/C (second compound 3.16 µM, first compound 0.1 µM) was 94.1%, the viability, T/C (second compound 3.16 µM, first compound 0.316 µM) was 82.3% and the viability, T/C (second compound 3.16 µM, first compound 1 µM) was 75.4%. For the same molecule, the viability, T/C (second compound 3.16 µM, first compound 3.16 µM) was 73.4%, the viability, T/C (second compound 3.16 µM, first compound 10 µM) was 64.7% and the viability, T/C (second compound 10 µM, first compound 0.0316 µM) was 130%. For the same molecule, the viability, T/C (second compound 10 µM, first compound 0.1 µM) was 128%, the viability, T/C (second compound 10 µM, first compound 0.316 µM) was 114% and the viability, T/C (second compound 10 µM, first compound 1 µM) was 95.5%. The viability, T/C (second compound 10 µM, first compound 3.16 µM) was 94.1% and the viability, T/C (second compound 10 µM, first compound 10 µM) was 73.6%.
